This data set can be described thus: DL50 (acute lethal dose). To be noted: species, route and unit not given.

Take `CC(CN1CCN(c2cccc(Cl)c2)CC1)Cn1nc2ccccn2c1=O` (centres unmarked) [(I) R'=R"=R'''=H; R=CH₃, 2-[3-[4-(3-chlorophenyl)-1-piperazinyl]-2-methylpropyl]-1,2,4-triazole[4,3-a]-pyridin-3-(2H)-one]: the DL₅₀ was ≤ 600.

Take `CC(CCn1nc2ccccn2c1=O)N1CCN(c2cccc(Cl)c2)CC1` (centres unmarked) [(I) R=R"=R'''=H; R'=CH₃, 2-[3-[4-(3-chlorophenyl)-1-piperazinyl]-3-methylpropyl]-1,2,4-triazole-[4,3-a]-pyridin-3(2H)-one]: the DL₅₀ is recorded as ≤ 300. The same measure for `CC1CN(CCCn2nc3ccccn3c2=O)CCN1c1cccc(Cl)c1` (centres unmarked) [(I) R=R'=R"=H; R'''=CH₃, 2-[3-[4-(3-chlorophenyl)-1-(3-methyl)-piperazinyl]-propyl]-1,2,4-triazole-[4,3-a]-pyridin-3(2H)-one]: ≤ 600; for `CC1CN(c2cccc(Cl)c2)CCN1CCCn1nc2ccccn2c1=O` (centres unmarked) [(I) R=R'=R'''=H; R"=CH₃, 2-[3-[4-(3-chlorophenyl)-1-(2-methyl)-piperazinyl]-propyl]-1,2,4-triazole-[4,3-a]-pyridin-3(2H)-one]: 300. The same measure for `O=c1n(CCCN2CCN(c3cccc(Cl)c3)CC2)nc2ccccn12` [trazodone, Trazodone, reference compound]: ≥ 200.
